These results are taken from ChEMBL document CHEMBL3351331, “Novel Disubstituted Pyrimidines as Inhibitors of Bruton's Tyrosine Kinase” (ACS Med Chem Lett, 2015).

A value given as a limit tells only on which side of the number the result lay.

The test deals with Tyrosine-protein kinase BTK (Homo sapiens, UniProt Q06187). In words: Inhibition of BTK (unknown origin) by Omnia continuous read kinase assay.
Sequence of Tyrosine-protein kinase BTK (Q06187 whole entry): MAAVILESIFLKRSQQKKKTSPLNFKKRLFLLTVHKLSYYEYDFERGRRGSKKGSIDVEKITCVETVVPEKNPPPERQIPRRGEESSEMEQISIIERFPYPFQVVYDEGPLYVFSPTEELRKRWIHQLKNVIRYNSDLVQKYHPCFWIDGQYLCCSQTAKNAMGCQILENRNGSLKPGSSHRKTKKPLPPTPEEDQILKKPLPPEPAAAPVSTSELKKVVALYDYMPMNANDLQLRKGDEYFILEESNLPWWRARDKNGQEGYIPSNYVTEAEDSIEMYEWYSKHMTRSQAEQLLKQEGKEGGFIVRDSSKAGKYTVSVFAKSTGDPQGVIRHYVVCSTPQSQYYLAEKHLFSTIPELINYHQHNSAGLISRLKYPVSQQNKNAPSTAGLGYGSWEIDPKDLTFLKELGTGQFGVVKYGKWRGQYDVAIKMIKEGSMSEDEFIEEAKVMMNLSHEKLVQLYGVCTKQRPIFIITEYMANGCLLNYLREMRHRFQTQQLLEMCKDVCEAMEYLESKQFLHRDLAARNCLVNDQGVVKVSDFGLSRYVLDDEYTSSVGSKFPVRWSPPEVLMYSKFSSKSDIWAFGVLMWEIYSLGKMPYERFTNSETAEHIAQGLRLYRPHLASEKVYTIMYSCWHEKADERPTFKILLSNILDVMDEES
`C=CC(=O)Nc1cccc(Nc2nc(Nc3ccc(OCCO)cc3)ncc2F)c1` registered a 50% inhibitory concentration (IC50) of less than 0.01 µM.

Regarding `C=CC(=O)Nc1cccc(Nc2nc(Nc3ccc(O)cc3)ncc2F)c1`, the IC50 was less than 0.01 µM.

The compound `COCCOc1ccc(Nc2ncc(F)c(Nc3cccc(NC(=O)C(O)CO)c3)n2)cc1` (stereo unspecified) yielded an IC50 of 0.101 µM.

Consider `COCCOc1ccc(Nc2ncc(F)c(Nc3cccc(NC(=O)C4CO4)c3)n2)cc1` (stereo unspecified), for which the IC50 was less than 0.01 µM.

Turning to `C=CC(=O)Nc1cccc(N(C)c2nc(Nc3ccc(OCCO)cc3)ncc2F)c1`, the 50% inhibitory concentration (IC50) is less than 0.01 µM.

Take `C=CC(=O)Nc1cccc(Nc2nc(N(C)c3ccc(OCCO)cc3)ncc2F)c1`: the IC50 is 0.101 µM.

What is called IC50 is the concentration at which inhibition is half-maximal.
